Measured values as given in ChEMBL document CHEMBL4392874, “Inhibitory Effects of Phenylpropanoid Derivatives from Oenanthe javanica on Antigen-Stimulated Degranulation in RBL-2H3 Cells” (J Nat Prod, 2019).

Assays:
[1] = test system: RBL-2H3; assay: Antiallergic activity in […]-stimulated rat RBL2H3 cells assessed as inhibition of anti-DNP-IgE-mediated degranulation by measuring decrease in beta-hexosaminidase activity preincubated for 20 mins followed by DNP-BSA stimulation; type: functional, cell-based
[2] = test system: HeLa; assay: Cytotoxicity against human HeLa cells assessed as reduction in cell viability at 12.5 to 100 ug/ml measured after 12 hrs by crystal violet staining based assay
[3] = test system: RBL-2H3; assay: Cytotoxicity against rat RBL2H3 cells assessed as reduction in cell viability at 6.3 to 50 ug/ml measured after 3 hrs by CCK8 assay; type: cell-based; conditions: rbl-2h3, 3 h
[4] = test system: RBL-2H3; assay: Antiallergic activity in rat RBL2H3 cells assessed as inhibition of A23187/PMA-induced beta hexosaminidase release after 1 hr by para-nitrophenyl-N-acetyl-beta-d-glucosaminide substrate based assay; type: functional, cell-based
[5] = test system: RBL-2H3; assay: Antiallergic activity in rat RBL2H3 cells assessed as inhibition of A23187-induced beta hexosaminidase release after 1 hr by para-nitrophenyl-N-acetyl-beta-d-glucosaminide substrate based assay; type: functional, cell-based

O=C(O)C(=Cc1ccc(O)cc1)/C=C/c1ccc(O)cc1 (mixture of isomers)
inhibition [1]: Dose-dependent effect | Activity [2]: Non-Toxic | Activity [3]: Non-Toxic | inhibition [4]: Dose-dependent effect | inhibition [5]: Dose-dependent effect

O=C(/C=C/c1ccc(O)c(O)c1)O[C@H]1[C@@H](C(=O)O)OC(C(=O)O)=C[C@H]1OC(=O)/C=C/c1ccc(O)c(O)c1
inhibition [1]: Dose-dependent effect | Activity [2]: Non-Toxic | Activity [3]: Non-Toxic | inhibition [4]: Dose-dependent effect | inhibition [5]: Dose-dependent effect

COc1cc(-c2oc3cc(O)cc(O)c3c(=O)c2O)ccc1O [ISORHAMNETIN]
Activity [2]: Non-Toxic

O=C1O[C@H](c2ccc(O)cc2)[C@@H](C(=O)O)/C1=C\c1ccc(O)cc1
inhibition [1]: Dose-dependent effect | Activity [2]: Non-Toxic | Activity [3]: Non-Toxic | inhibition [4]: Dose-dependent effect | inhibition [5]: Dose-dependent effect

O=c1c(O)c(-c2ccc(O)c(O)c2)oc2cc(O)cc(O)c12 [QUERCETIN]
Activity [2]: Toxic
